Test results: ChEMBL document CHEMBL1146810, “Synthesis of a bromotyrosine-derived natural product inhibitor of mycothiol-S-conjugate amidase” (Bioorg Med Chem Lett, 2004)

How the values were obtained:
[1] = Inhibitory activity against AcGI deacetylase was determined
[2] = test system: Mycobacterium tuberculosis; test: Inhibitory activity against mycothiol-S-conjugate amidase (MCA) was determined

## NCCCOc1c(Br)cc(C/C(=N\O)C(=O)NCCCCN=C(N)N)cc1Br
[1]
  Inhibition: 150 µM
[2]
  Inhibition: 30 µM
